Test results: patent US20210009542A1 (Calico Life Sciences LLC, priority 2018, published 2021)
Where two headings read alike, the source gives them in different places.

Legend:
[1] = system: B16F10 mouse melanoma cells; experiment: B16F10 IFNγ-induced cellular growth inhibition assay; type: cell-based; settings: Mus musculus, B16-F10, 33 μM compound
Protocol: B16F10 mouse melanoma cells (ATCC Cat ^#CRL-6475, Manassas, Va.) were seeded at a density of 500 cells per well in a 384-well clear bottom plate (Corning Cat^# 3765, Corning, N.Y.) in 25 μL total volume of DMEM+10% FBS (Sigma Cat ^#D6429 and Sigma Cat ^#F4135, St. Louis, Mo.). Cells were allowed to adhere overnight at 37° C.+5% CO2. On the following day, 12.5 μL of mouse IFNγ (RD systems Cat485-MI/CF, Minneapolis, Minn.) was added to half of the plate (columns 13-24) at a concentration of 2 ng/mL for a final assay concentration of 0.5 ng/mL of IFNγ. Media only (12.5 μL of DMEM+10% FBS) was added to the remainder of the plate (columns 1-12). Next, compounds resuspended in DMSO (Sigma Cat ^#D2650) at 100 mM were diluted in semi-log dilutions in DMSO ranging from 100 mM to 0.001 mM and DMSO only controls were included. The compound/DMSO dilutions were further diluted 1:250 in DMEM+10% FBS, and 12.5 μL of these dilutions were added in triplicates to cells of both treatment arms (with and without IFNγ). Final compound concentrations ranged from 100 μM to 0.001 μM with a final DMSO concentration of 0.1%. Compounds were only dosed in the inner 240 wells, avoiding the outer 2-well perimeter of the plate to minimize edge effects. Finally, the plate was loaded into an IncuCyte® S3 Live Cell Analysis System (Essen Bioscience-Sartorius, Ann Arbor, Mich.) maintained in a 37° C.+5% CO2 incubator, allowed to equilibrate for 2 hours, and imaged every 6 hours for 5 days. Confluence over time for compound dilutions in the presence and absence of IFNγ was measured. Growth inhibition values were obtained when the “DMSO/no IFNγ” control reached confluence >95%. At these time points, the percent growth inhibition of each compound at the indicated concentration was calculated relative to the “DMSO/with IFNγ” control.

[2] = molecular target: T1, His tagged PTPN2 (TC45) protein (Homo sapiens, UniProt P17706); experiment: Mobility shift assay (MSA) for potency of PTPN2 inhibitors; type: biochemical; settings: read-out: PTPN2 MSA IC50
T1 construct: made in house
T1 sequence (P17706 with tags, fused parts or gaps isoform P17706-2): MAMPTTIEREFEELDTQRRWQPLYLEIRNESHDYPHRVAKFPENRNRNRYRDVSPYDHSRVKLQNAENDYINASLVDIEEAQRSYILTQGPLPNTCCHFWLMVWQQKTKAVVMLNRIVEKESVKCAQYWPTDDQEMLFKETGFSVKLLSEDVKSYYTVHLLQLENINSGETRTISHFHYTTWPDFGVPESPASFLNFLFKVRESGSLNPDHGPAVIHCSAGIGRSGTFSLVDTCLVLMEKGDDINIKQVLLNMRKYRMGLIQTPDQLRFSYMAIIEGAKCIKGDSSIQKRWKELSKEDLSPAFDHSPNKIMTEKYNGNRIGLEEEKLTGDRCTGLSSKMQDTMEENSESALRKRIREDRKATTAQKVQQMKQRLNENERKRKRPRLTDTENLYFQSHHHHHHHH
Summary of the method: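 His-tagged PTPN2 TC45 (0.5 nM) was preincubated with compound (12-point, 1:3) for 10 min at room temperature in 50 mM HEPES pH 7.5, 1 mM EGTA, 10 mM EDTA, 0.01% Tween 20, 2 mM DTT. OG488-labelled phospho-insulin-receptor peptide ([…]) was then added for 10 min. After quenching, dephosphorylation was measured by microfluidic mobility shift and IC50 derived from % inhibition.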

[3] = +0.5 ng/mL IFNγ, relative to DMSO control, read-out: % B16F10 growth inhibition (+0.5 ng/mL IFNγ) @ 33 μM
[4] = no IFNγ, read-out: % B16F10 growth inhibition (no IFNγ) @ 33 μM

SMILES | inhibition at 33 µM [1, 3] [%] | inhibition at 33 µM [1, 4] [%] | IC50 [2] [nM]
[2H]C1([2H])C(=O)NS(=O)(=O)N1c1c(O)cc2ccc(OC)cc2c1F [Compound 123, 5-(1-fluoro-3-hydroxy-7-methoxynaphthalen-2-yl)(4,4-^2H2)-1λ^6,2,5-thiadiazolidine-1,1,3-trione] | 60 to 90 | < 25 | 1 to 10
O=C1CN(c2c(O)cc3ccc(NCCNS(=O)(=O)C4CC4)cc3c2F)S(=O)(=O)N1 [Compound 125, N-(2-{[8-fluoro-6-hydroxy-7-(1,1,4-trioxo-1λ^6,2,5-thiadiazolidin-2-yl)naphthalen-2-yl]amino}ethyl)cyclopropanesulfonamide] | 60 to 90 | < 25 | 1 to 10
O=C1CN(c2c(O)cc3ccc(OCCNS(=O)(=O)C4CC4)cc3c2F)S(=O)(=O)N1 [Compound 127, N-(2-{[8-fluoro-6-hydroxy-7-(1,1,4-trioxo-1λ^6,2,5-thiadiazolidin-2-yl)naphthalen-2-yl]oxy}ethyl)cyclopropanesulfonamide] | 60 to 90 | < 25 | < 1
CS(=O)(=O)N1CC(Nc2ccc3cc(O)c(N4CC(=O)NS4(=O)=O)c(F)c3c2)C1 [Compound 128, 5-(1-fluoro-3-hydroxy-7-{[1-(methanesulfonyl)azetidin-3-yl]amino}naphthalen-2-yl)-1λ^6,2,5-thiadiazolidine-1,1,3-trione] | > 90 | < 25 | 1 to 10
N#CCCCOc1ccc2cc(O)c(N3CC(=O)NS3(=O)=O)c(F)c2c1 [Compound 129, 4-{[8-fluoro-6-hydroxy-7-(1,1,4-trioxo-1λ^6,2,5-thiadiazolidin-2-yl)naphthalen-2-yl]oxy}butanenitrile] | > 90 | < 25 | < 1
N#CCC1(COc2ccc3cc(O)c(N4CC(=O)NS4(=O)=O)c(F)c3c2)CC1 [Compound 130, [1-({[8-fluoro-6-hydroxy-7-(1,1,4-trioxo-1λ^6,2,5-thiadiazolidin-2-yl)naphthalen-2-yl]oxy}methyl)cyclopropyl]acetonitrile] | 60 to 90 | < 25 | < 1
O=C1CN(c2c(O)cc3ccc(-c4cnn(CC5CC5)c4)cc3c2F)S(=O)(=O)N1 [Compound 132, 5-{7-[1-(cyclopropylmethyl)-1H-pyrazol-4-yl]-1-fluoro-3-hydroxynaphthalen-2-yl}-1λ^6,2,5-thiadiazolidine-1,1,3-trione] | 60 to 90 | < 25 | < 1
CP(C)(=O)c1ccc(-c2ccc3cc(O)c(N4CC(=O)NS4(=O)=O)c(F)c3c2)s1 [Compound 141, 5-{7-[5-(dimethylphosphoryl)thiophen-2-yl]-1-fluoro-3-hydroxynaphthalen-2-yl}-1λ^6,2,5-thiadiazolidine-1,1,3-trione] | 60 to 90 | < 25 | < 1
C[C@H](O)CCOc1ccc2cc(O)c(N3CC(=O)NS3(=O)=O)c(F)c2c1 [Compound 147, 5-{1-fluoro-3-hydroxy-7-[(3S)-3-hydroxybutoxy]naphthalen-2-yl}-1λ^6,2,5-thiadiazolidine-1,1,3-trione] | > 90 | < 25 | < 1
CCC(=O)CCOc1ccc2cc(O)c(N3CC(=O)NS3(=O)=O)c(F)c2c1 [Compound 155, 5-{1-fluoro-3-hydroxy-7-[(3-oxopentyl)oxy]naphthalen-2-yl}-1λ^6,2,5-thiadiazolidine-1,1,3-trione] | 60 to 90 | 60 to 90 | < 1
O=C1CN(c2c(O)cc3ccc(OCCCC(F)(F)F)cc3c2F)S(=O)(=O)N1 [Compound 158, 5-[1-fluoro-3-hydroxy-7-(4,4,4-trifluorobutoxy)naphthalen-2-yl]-1λ^6,2,5-thiadiazolidine-1,1,3-trione] | 60 to 90 | < 25 | 1 to 10
N#CC1(CCOc2ccc3cc(O)c(N4CC(=O)NS4(=O)=O)c(F)c3c2)CC1 [Compound 159, 1-(2-{[8-fluoro-6-hydroxy-7-(1,1,4-trioxo-1λ^6,2,5-thiadiazolidin-2-yl)naphthalen-2-yl]oxy}ethyl)cyclopropane-1-carbonitrile] | > 90 | < 25 | < 1
CNCC(C)(C)CCOc1ccc2cc(O)c(N3CC(=O)NS3(=O)=O)c(F)c2c1 [Compound 163, 5-{7-[3,3-dimethyl-4-(methylamino)butoxy]-1-fluoro-3-hydroxynaphthalen-2-yl}-1λ^6,2,5-thiadiazolidine-1,1,3-trione] | > 90 | < 25 | < 1
O=C1CN(c2c(O)cc3ccc(NCCc4ccccc4)cc3c2F)S(=O)(=O)N1 [Compound 164, 5-{1-fluoro-3-hydroxy-7-[(2-phenylethyl)amino]naphthalen-2-yl}-1λ^6,2,5-thiadiazolidine-1,1,3-trione] | > 90 | < 25 | < 1
CC(C)(N)CCOc1ccc2cc(O)c(N3CC(=O)NS3(=O)=O)c(F)c2c1 [Compound 165, 5-[7-(3-amino-3-methylbutoxy)-1-fluoro-3-hydroxynaphthalen-2-yl]-1λ^6,2,5-thiadiazolidine-1,1,3-trione] | > 90 | < 25 | 1 to 10
O=C1CN(c2c(O)cc3ccc(NCCCC(F)(F)F)cc3c2F)S(=O)(=O)N1 [Compound 166, 5-{1-fluoro-3-hydroxy-7-[(4,4,4-trifluorobutyl)amino]naphthalen-2-yl}-1λ^6,2,5-thiadiazolidine-1,1,3-trione] | > 90 | < 25 | 1 to 10
O=C1CN(c2c(O)cc3ccc(C(F)F)cc3c2F)S(=O)(=O)N1 [Compound 167, 5-[7-(difluoromethyl)-1-fluoro-3-hydroxynaphthalen-2-yl]-1λ^6,2,5-thiadiazolidine-1,1,3-trione] | 60 to 90 | < 25 | 10 to 100
CP(C)(=O)N1CC=C(c2ccc3cc(O)c(N4CC(=O)NS4(=O)=O)c(F)c3c2)C1 [Compound 168, 5-{7-[1-(dimethylphosphoryl)-2,5-dihydro-1H-pyrrol-3-yl]-1-fluoro-3-hydroxynaphthalen-2-yl}-1λ^6,2,5-thiadiazolidine-1,1,3-trione] | > 90 | < 25 | < 1
O=C1CN(c2c(O)cc3ccc(NCCC(F)(F)F)cc3c2F)S(=O)(=O)N1 [Compound 169, 5-{1-fluoro-3-hydroxy-7-[(3,3,3-trifluoropropyl)amino]naphthalen-2-yl}-1λ^6,2,5-thiadiazolidine-1,1,3-trione] | > 90 | < 25 | 1 to 10
COC(C)(C)CCOc1ccc2cc(O)c(N3CC(=O)NS3(=O)=O)c(F)c2c1 [Compound 170, 5-[1-fluoro-3-hydroxy-7-(3-methoxy-3-methylbutoxy)naphthalen-2-yl]-1λ^6,2,5-thiadiazolidine-1,1,3-trione] | 60 to 90 | < 25 | < 1
N#CCCCNc1ccc2cc(O)c(N3CC(=O)NS3(=O)=O)c(F)c2c1 [Compound 174, 4-{[8-fluoro-6-hydroxy-7-(1,1,4-trioxo-1λ^6,2,5-thiadiazolidin-2-yl)naphthalen-2-yl]amino}butanenitrile] | > 90 | < 25 | 1 to 10
